Common to all, as to assay: Akt Inhibition Assay
Settings in all cases: pH 7.5; 22 °C

The target in test [1] is RAC-alpha serine/threonine-protein kinase (Homo sapiens, UniProt P31749). From the text:
(§1) Purified recombinant human Akt kinase was monitored for kinase activity in the presence or absence of inhibitors in a 96-well format. Detection was done by homogeneous time-resolved fluorescence (HTRF) using a europium-labeled Phospho (S21)-GSK3a antibody, and streptavidin-linked XL665 fluorophore which binds to the biotin moiety on the substrate peptide.

For test [2], the target named is RAC-beta serine/threonine-protein kinase (Homo sapiens, UniProt P31751).
Chain of RAC-beta serine/threonine-protein kinase (P31751 whole entry): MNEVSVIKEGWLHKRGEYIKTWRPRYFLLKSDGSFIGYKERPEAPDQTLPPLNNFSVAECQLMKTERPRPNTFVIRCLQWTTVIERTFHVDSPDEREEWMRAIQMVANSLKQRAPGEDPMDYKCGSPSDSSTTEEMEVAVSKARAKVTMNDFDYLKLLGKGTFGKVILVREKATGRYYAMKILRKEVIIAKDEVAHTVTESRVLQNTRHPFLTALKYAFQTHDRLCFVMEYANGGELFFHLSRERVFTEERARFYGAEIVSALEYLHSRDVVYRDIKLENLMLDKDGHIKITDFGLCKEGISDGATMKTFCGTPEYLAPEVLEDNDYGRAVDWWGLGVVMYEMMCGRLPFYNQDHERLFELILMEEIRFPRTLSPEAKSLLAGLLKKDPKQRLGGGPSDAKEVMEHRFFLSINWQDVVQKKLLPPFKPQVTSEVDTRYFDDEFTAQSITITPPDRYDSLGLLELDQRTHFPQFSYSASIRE
Excerpt: as §1

In test [3] the target is RAC-gamma serine/threonine-protein kinase (Homo sapiens, UniProt Q9Y243).
Chain of RAC-gamma serine/threonine-protein kinase (Q9Y243 whole entry): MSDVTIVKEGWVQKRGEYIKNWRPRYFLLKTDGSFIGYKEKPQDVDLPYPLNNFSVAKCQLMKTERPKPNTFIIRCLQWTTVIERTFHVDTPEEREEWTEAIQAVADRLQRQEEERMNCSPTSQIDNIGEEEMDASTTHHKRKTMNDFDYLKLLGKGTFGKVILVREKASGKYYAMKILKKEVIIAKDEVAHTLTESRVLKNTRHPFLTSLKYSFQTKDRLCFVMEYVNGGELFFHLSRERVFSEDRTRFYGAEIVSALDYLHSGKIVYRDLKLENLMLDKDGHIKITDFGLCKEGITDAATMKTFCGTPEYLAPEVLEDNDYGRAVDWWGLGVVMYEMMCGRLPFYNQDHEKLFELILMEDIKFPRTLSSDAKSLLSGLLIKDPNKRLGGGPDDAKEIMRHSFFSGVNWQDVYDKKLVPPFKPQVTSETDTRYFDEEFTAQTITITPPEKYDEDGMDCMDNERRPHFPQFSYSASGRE
Excerpt: as §1

Chain of RAC-alpha serine/threonine-protein kinase (P31749 whole entry): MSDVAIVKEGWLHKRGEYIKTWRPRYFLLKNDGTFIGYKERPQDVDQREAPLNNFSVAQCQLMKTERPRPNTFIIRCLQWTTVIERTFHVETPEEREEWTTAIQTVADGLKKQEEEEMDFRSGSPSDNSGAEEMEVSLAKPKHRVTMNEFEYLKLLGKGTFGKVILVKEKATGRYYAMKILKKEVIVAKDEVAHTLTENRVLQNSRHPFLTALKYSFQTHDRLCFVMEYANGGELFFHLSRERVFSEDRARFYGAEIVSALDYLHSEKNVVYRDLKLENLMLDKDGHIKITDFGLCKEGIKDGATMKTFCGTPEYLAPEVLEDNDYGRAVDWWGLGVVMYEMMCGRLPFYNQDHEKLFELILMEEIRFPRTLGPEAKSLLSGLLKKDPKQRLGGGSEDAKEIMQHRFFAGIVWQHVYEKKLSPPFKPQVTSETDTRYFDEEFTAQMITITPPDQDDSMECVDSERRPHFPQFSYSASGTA

The term IC50 denotes the concentration needed to halve the response being measured. Consider `Nc1nnc(-c2cnc(-c3ccc(CN4CCC(c5cc(-c6ccncc6)[nH]n5)CC4)cc3)c(-c3ccccc3)c2)s1` [5-{5-phenyl-6-[4-({4-[5-(pyridin-4-yl)-1H-pyrazol-3-yl]piperidin-1-yl}methyl)phenyl]pyridin-3-yl}-1,3,4-thiadiazol-2-amine], for which the half-inhibitory concentration (IC50) in test [1] was determined as 123 nM; in test [2], 38 nM.

Turning to `Nc1ncnc2c1cnn2C1CCN(Cc2ccc(-c3ncc(-c4ncccn4)cc3-c3ccccc3)cc2)CC1` [1-[1-({4-[3-phenyl-5-(pyrimidin-2-yl)pyridin-2-yl]phenyl}methyl)piperidin-4-yl]-1H-pyrazolo[3,4-d]pyrimidin-4-amine], the IC50 in test [1] turned out to be 306 nM; in test [2], 62 nM.

For the molecule `Nc1ncnc2c1cnn2C1CCN(Cc2ccc(-c3ncc(-c4nnc[nH]4)cc3-c3ccccc3)cc2)CC1` [1-[1-({4-[3-phenyl-5-(1H-1,2,4-triazol-3-yl)pyridin-2-yl]phenyl}methyl)piperidin-4-yl]-1H-pyrazolo[3,4-d]pyrimidin-4-amine], the concentration for half-maximal inhibition (IC50) in test [1] amounted to 182 nM; in test [2], 101 nM.

In the case of `Nc1nnc(-c2cnc(-c3ccc(CN4CCC(c5n[nH]c(-c6ccccn6)n5)CC4)cc3)c(-c3ccccc3)c2)s1` [5-{5-phenyl-6-[4-({4-[5-(pyridin-2-yl)-1H-1,2,4-triazol-3-yl]piperidin-1-yl}methyl)phenyl]pyridin-3-yl}-1,3,4-thiadiazol-2-amine], the 50% inhibitory concentration (IC50) in test [1] is 85 nM; in test [2] it was 22 nM.

On to `Nc1nnc(-c2cnc(-c3ccc(CN4CCC(c5cc(-c6ccccn6)[nH]n5)CC4)cc3)c(-c3ccccc3)c2)s1` [5-{5-phenyl-6-[4-({4-[5-(pyridin-2-yl)-1H-pyrazol-3-yl]piperidin-1-yl}methyl)phenyl]pyridin-3-yl}-1,3,4-thiadiazol-2-amine], for which the concentration for half-maximal inhibition (IC50) in test [1] was found to be 95 nM; in test [2], 28 nM.

Turning to `Nc1nnc(-c2cnc(-c3ccc(CN4CCC(n5cc(-c6cnccn6)cn5)CC4)cc3)c(-c3ccccc3)c2)s1` [5-{5-phenyl-6-[4-({4-[4-(pyrazin-2-yl)-1H-pyrazol-1-yl]piperidin-1-yl}methyl)phenyl]pyridin-3-yl}-1,3,4-thiadiazol-2-amine], the 50% inhibitory concentration (IC50) in test [1] amounted to 172 nM; in test [2], 51 nM.

In the case of `Nc1ncnc2c1cnn2C1CCN(Cc2ccc(-c3ncc(-c4nccs4)cc3-c3ccccc3)cc2)CC1` [1-[1-({4-[3-phenyl-5-(1,3-thiazol-2-yl)pyridin-2-yl]phenyl}methyl)piperidin-4-yl]-1H-pyrazolo[3,4-d]pyrimidin-4-amine], the IC50 in test [1] turned out to be 264 nM; in test [2] it was 64 nM.

With `Nc1ncnc2c1ncn2C1CCN(Cc2ccc(-c3ncc(-c4nnn[nH]4)cc3-c3ccccc3)cc2)CC1` [9-[1-({4-[3-phenyl-5-(1H-1,2,3,4-tetrazol-5-yl)pyridin-2-yl]phenyl}methyl)piperidin-4-yl]-9H-purin-6-amine], the figures for the IC50 in test [1], in test [3] and in test [2] were 210 nM, greater than 50000 nM and 105 nM, respectively.

For the molecule `Nc1nnc(-c2cnc(-c3ccc(CN4CCC(n5ncc6c(N)ncnc65)CC4)cc3)c(-c3ccccc3)c2)s1` [5-(6-{4-[(4-{4-amino-1H-pyrazolo[3,4-d]pyrimidin-1-yl}piperidin-1-yl)methyl]phenyl}-5-phenylpyridin-3-yl)-1,3,4-thiadiazol-2-amine], the IC50 was determined as 126 nM in test [1] and 22 nM in test [2].

`Nc1nnc(-c2cnc(-c3ccc(CN4CCC(n5c(=O)[nH]c6ncccc65)CC4)cc3)c(-c3ccccc3)c2)s1` [1-[1-({4-[5-(5-amino-1,3,4-thiadiazol-2-yl)-3-phenylpyridin-2-yl]phenyl}methyl)piperidin-4-yl]-1H,2H,3H-imidazo[4,5-b]pyridin-2-one]: the results for the 50% inhibitory concentration (IC50) in test [1] and in test [2] were 434 nM and 73 nM, respectively.

Regarding `Nc1nnc(-c2cnc(-c3ccc(CNCCC(=O)c4ccccc4N)cc3)c(-c3ccccc3)c2)s1` [3-[({4-[5-(5-amino-1,3,4-thiadiazol-2-yl)-3-phenylpyridin-2-yl]phenyl}methyl)amino]-1-(2-aminophenyl)propan-1-one], the IC50 in test [1] came to 114 nM; in test [2], 30 nM.

Turning to `Nc1ncnc2c1cnn2C1CCN(Cc2ccc(-c3ncc(-c4ncon4)cc3-c3ccccc3)cc2)CC1` [1-[1-({4-[5-(1,2,4-oxadiazol-3-yl)-3-phenylpyridin-2-yl]phenyl}methyl)piperidin-4-yl]-1H-pyrazolo[3,4-d]pyrimidin-4-amine], the IC50 in test [1] turned out to be 180 nM; in test [2] it was 121 nM.

With `Nc1ncnc2c1cnn2C1CCN(Cc2ccc(-c3ncc(-c4ccccn4)cc3-c3ccccc3)cc2)CC1` [1-[1-({4-[3-phenyl-5-(pyridin-2-yl)pyridin-2-yl]phenyl}methyl)piperidin-4-yl]-1H-pyrazolo[3,4-d]pyrimidin-4-amine], the IC50 turned out to be 1630 nM in test [1] and 370 nM in test [2].

`Nc1nnc(-c2cnc(-c3ccc(CN4CCC(n5cc(-c6ccccn6)cn5)CC4)cc3)c(-c3ccccc3)c2)s1` [5-{5-phenyl-6-[4-({4-[4-(pyridin-2-yl)-1H-pyrazol-1-yl]piperidin-1-yl}methyl)phenyl]pyridin-3-yl}-1,3,4-thiadiazol-2-amine]: the half-maximal inhibitory concentration (IC50) stood at 214 nM in test [1] and 90 nM in test [2].

For the origin of these results see BindingDB's records for doi:10.1016/j.bmcl.2007.12.040 (Merck Research Laboratories, 2008).
